From patent US7396837B2, “Antitumoral analogs of lamellarins” (Pharma Mar, S.A.U., priority 2002, dated 2008)
Read-outs that look alike come from different tables or passages of the source.

Columns and labels:
IGROV-ET = assay: SRB colorimetric cell growth inhibition assay, IGROV-ET (ET-743 resistant); format: cell-based; details: Homo sapiens; for GI50: GI=growth inhibition, read-out: GI50 IGROV-ET; for IC (TGI): total growth inhibition (cytostatic effect), read-out: TGI IGROV-ET; for CC50: cell killing (cytotoxic effect)
Outline: (§1)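 Human tumour cells were exposed continuously to the test sample, and growth and viability were quantified by sulforhodamine B staining. Means ± SD came from triplicate wells, and GI, TGI (cytostatic) and LC (cell killing) parameters were derived.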

SK-BR-3 = assay: SRB colorimetric cell growth inhibition assay, SK-BR-3; format: cell-based; details: Homo sapiens; for GI50: GI=growth inhibition, read-out: GI50 SK-BR-3; for IC (TGI): total growth inhibition (cytostatic effect), read-out: TGI SK-BR-3; for CC50: cell killing (cytotoxic effect)
Outline: as §1

PANC-1 = assay: SRB colorimetric cell growth inhibition assay, PANC-1; format: cell-based; details: Homo sapiens; for GI50: GI=growth inhibition, read-out: GI50 PANC-1; for IC (TGI): read-out: TGI PANC-1
Outline: as §1

LoVo = assay: SRB colorimetric cell growth inhibition assay, LoVo; format: cell-based; details: Homo sapiens, LoVo; for GI50: GI=growth inhibition, read-out: GI50 LOVO; for IC (TGI): read-out: TGI LOVO
Outline: as §1

human topoisomerase I = target: T1, human topoisomerase I (Homo sapiens, UniProt P11387); assay: Topoisomerase I DNA relaxation assay (supercoiled plasmid DNA); format: biochemical; details: supercoiled plasmid DNA, each compound tested at 1 μM, agarose gel with ethidium bromide
T1 sequence (P11387 1-765): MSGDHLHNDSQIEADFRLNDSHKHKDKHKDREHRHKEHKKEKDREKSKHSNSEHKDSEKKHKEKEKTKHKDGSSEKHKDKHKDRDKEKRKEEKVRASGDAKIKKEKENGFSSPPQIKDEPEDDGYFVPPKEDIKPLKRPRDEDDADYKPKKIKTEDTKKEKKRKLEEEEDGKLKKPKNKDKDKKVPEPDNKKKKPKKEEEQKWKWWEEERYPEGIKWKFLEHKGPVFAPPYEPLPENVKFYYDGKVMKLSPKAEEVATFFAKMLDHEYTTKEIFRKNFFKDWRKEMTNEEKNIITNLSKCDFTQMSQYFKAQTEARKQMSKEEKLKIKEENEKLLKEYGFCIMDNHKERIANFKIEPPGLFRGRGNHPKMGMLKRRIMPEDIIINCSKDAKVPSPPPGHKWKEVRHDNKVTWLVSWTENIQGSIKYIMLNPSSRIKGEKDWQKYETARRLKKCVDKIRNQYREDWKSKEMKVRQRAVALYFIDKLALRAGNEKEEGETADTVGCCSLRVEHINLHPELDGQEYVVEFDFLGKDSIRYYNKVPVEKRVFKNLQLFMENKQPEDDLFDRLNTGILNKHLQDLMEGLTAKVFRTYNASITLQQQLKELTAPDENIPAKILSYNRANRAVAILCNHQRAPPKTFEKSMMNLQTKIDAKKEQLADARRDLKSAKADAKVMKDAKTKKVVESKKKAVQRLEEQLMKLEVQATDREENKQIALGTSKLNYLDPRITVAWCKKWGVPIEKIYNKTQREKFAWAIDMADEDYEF
Outline: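 Supercoiled plasmid DNA was relaxed by human topoisomerase I with or without test compound at 1 μM. Products were resolved by agarose gel electrophoresis with ethidium bromide staining.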

A-549 = assay: SRB colorimetric cell growth inhibition assay, A-549; format: cell-based; details: Homo sapiens; for GI50: GI=growth inhibition, read-out: GI50 A-549; for IC (TGI): read-out: TGI A-549
Outline: as §1

K-562 = assay: SRB colorimetric cell growth inhibition assay, K-562; format: cell-based; details: Homo sapiens; for GI50: GI=growth inhibition, read-out: GI50 K-562; for IC (TGI): read-out: TGI K-562
Outline: as §1

IGROV = assay: SRB colorimetric cell growth inhibition assay, IGROV; format: cell-based
Outline: as §1

DU-145 = assay: SRB colorimetric cell growth inhibition assay, DU-145; format: cell-based; details: Homo sapiens; for GI50: GI=growth inhibition, read-out: GI50 DU-145; for IC (TGI): total growth inhibition (cytostatic effect), read-out: TGI DU-145; for CC50: cell killing (cytotoxic effect)
Outline: as §1

LoVo-Dox = assay: SRB colorimetric cell growth inhibition assay, LoVo-Dox (MDR); format: cell-based; details: Homo sapiens; for GI50: GI=growth inhibition, read-out: GI50 LOVO-DOX; for IC (TGI): read-out: TGI LOVO-DOX
Outline: as §1

HT-29 = assay: SRB colorimetric cell growth inhibition assay, HT-29; format: cell-based; details: Homo sapiens; for GI50: GI=growth inhibition, read-out: GI50 HT-29; for IC (TGI): read-out: TGI HT-29
Outline: as §1

SKOV-3 = assay: SRB colorimetric cell growth inhibition assay, SKOV-3; format: cell-based; details: Homo sapiens; for GI50: SK-OV-3, SKOV-3, GI=growth inhibition, read-out: GI50 SKOV-3; for IC (TGI): total growth inhibition (cytostatic effect), read-out: TGI SKOV-3
Outline: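 Sulforhodamine B colorimetric assay of cell growth and viability, mean ± SD of triplicate wells. Parameters derived: GI (growth inhibition), TGI (total growth inhibition, cytostatic) and LC (cell killing, cytotoxic).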

SK-MEL-28 = assay: SRB colorimetric cell growth inhibition assay, SK-MEL-28; format: cell-based; details: Homo sapiens; for GI50: GI=growth inhibition, read-out: GI50 MEL-28; for IC (TGI): total growth inhibition (cytostatic effect), read-out: TGI MEL-28; for CC50: cell killing (cytotoxic effect)
Outline: as §1

LNCaP = assay: SRB colorimetric cell growth inhibition assay, LNCaP; format: cell-based; details: Homo sapiens, LNCaP; for GI50: GI=growth inhibition, read-out: GI50 LN-caP; for IC (TGI): total growth inhibition (cytostatic effect), read-out: TGI LN-caP; for CC50: cell killing (cytotoxic effect)
Outline: as §1

[1] = Homo sapiens, IGROV; GI=growth inhibition; read-out: GI50 IGROV

SMILES | GI50 (IGROV-ET; IGROV-ET) [µM] | IC (TGI) (IGROV-ET; IGROV-ET) [µM] | GI50 (SK-BR-3; SK-BR-3, SK-BR-3) [µM] | IC (TGI) (SK-BR-3; SK-BR-3, SK-BR-3) [µM] | GI50 (PANC-1; PANC-1, PANC-1) [µM] | GI50 (LoVo) [µM] | stimulation of DNA cleavage by topoisomerase I / inhibition of topoisomerase I (nicked DNA band) in DNA relaxation assay (human topoisomerase I) | GI50 (A-549; A549, A-549) [µM] | GI50 (K-562; K562, K-562) [µM] | GI50 (IGROV; [1]) [µM] | GI50 (DU-145; DU-145, DU-145) [µM] | IC (TGI) (DU-145; DU-145, DU-145) [µM] | GI50 (LoVo-Dox; LOVO-DOX) [µM] | GI50 (HT-29; HT-29, HT-29) [µM] | GI50 (SKOV-3) [µM] | IC (TGI) (SKOV-3; SK-OV-3, SKOV-3) [µM] | GI50 (SK-MEL-28; SK-MEL-28, MEL-28) [µM] | IC (TGI) (SK-MEL-28; SK-MEL-28, MEL-28) [µM] | GI50 (LNCaP; LN-caP) [µM] | IC (TGI) (LNCaP; LN-caP) [µM] | other results
COc1cc(-c2c3c4cc(OC)c(O)cc4oc(=O)c3n3ccc4cc(O)c(OC)cc4c23)ccc1O [Compound 3, lamellarin D, reference compound] | 0.214 | 1.16 | 0.106 | 0.767 | 0.248 | 0.398 | significantly amplified | 0.0204 | 0.0869 | 0.236 | 0.019 | 0.0797 | 0.42 | 5.33 | 0.0537 | 0.24 | 0.0881 | 1.77 | 0.123 | 0.398 | CC50 (IGROV-ET; read-out: LC50 IGROV-ET, IGROV-ET): 20 µM; CC50 (SK-BR-3; SK-BR-3, read-out: LC50 SK-BR-3, SK-BR-3): 7.69 µM; IC (TGI) (PANC-1; PANC-1, PANC-1, total growth inhibition (cytostatic effect)): 2.2 µM; CC50 (PANC-1; PANC-1, read-out: LC50 PANC-1, PANC-1, cell killing (cytotoxic effect)): 20 µM; CC50 (LoVo; read-out: LC50 LOVO, LOVO, cell killing (cytotoxic effect)): 2 µM; IC (TGI) (LoVo; total growth inhibition (cytostatic effect)): 0.965 µM; IC (TGI) (A-549; A549, A-549, total growth inhibition (cytostatic effect)): 1.14 µM; CC50 (A-549; A549, read-out: LC50 A-549, A-549, cell killing (cytotoxic effect)): 15.5 µM; IC (TGI) (K-562; K562, K-562, total growth inhibition (cytostatic effect)): 0.791 µM; CC50 (K-562; K562, read-out: LC50 K-562, K-562, cell killing (cytotoxic effect)): 8.15 µM; CC50 (IGROV; Homo sapiens, IGROV, read-out: LC50 IGROV, IGROV; cell killing (cytotoxic effect)): 20 µM; IC (TGI) (IGROV; Homo sapiens; IGROV; total growth inhibition (cytostatic effect); read-out: TGI IGROV): 1.06 µM; CC50 (DU-145; DU-145, read-out: LC50 DU-145, DU-145): 20 µM; IC (TGI) (LoVo-Dox; LOVO-DOX, total growth inhibition (cytostatic effect)): 1.67 µM; CC50 (LoVo-Dox; read-out: LC50 LOVO-DOX, LOVO-DOX, cell killing (cytotoxic effect)): 20 µM; IC (TGI) (HT-29; HT-29, HT-29, total growth inhibition (cytostatic effect)): 19 µM; CC50 (HT-29; HT-29, read-out: LC50 HT-29, HT-29, cell killing (cytotoxic effect)): 20 µM; CC50 (SK-MEL-28; SK-MEL-28, read-out: LC50 MEL-28, MEL-28): 11.3 µM; CC50 (LNCaP; read-out: LC50 LN-caP, LN-caP): 1.06 µM
COc1cc(-c2c3c4cc(OC)c(OC(=O)[C@@H]5CCCN5)cc4oc(=O)c3n3ccc4cc(OC(=O)[C@@H]5CCCN5)c(OC)cc4c23)ccc1OC(=O)[C@@H]1CCCN1 [Compound 33] | 0.0781 | 0.589 | 0.0305 | 0.168 | 0.0892 | 0.153 | marked inhibition of topoisomerase I | 0.0379 | 0.00596 | 0.0496 | 0.0186 | 0.046 | 0.198 | 1.34 | 0.0391 | 0.228 | 0.0411 | 0.198 | 0.0397 | 0.155 | CC50 (IGROV-ET; IGROV-ET, read-out: LC50 IGROV-ET): 8.83 µM; CC50 (SK-BR-3; SK-BR-3, SK-BR-3, read-out: LC50 SK-BR-3): 1.44 µM; CC50 (PANC-1; PANC-1, PANC-1, LC=cell killing (cytotoxic effect), read-out: LC50 PANC-1): 8.44 µM; IC (TGI) (PANC-1; PANC-1, PANC-1, TGI=total growth inhibition (cytostatic effect)): 1.06 µM; CC50 (LoVo; LC=cell killing (cytotoxic effect), read-out: LC50 LOVO): 0.726 µM; IC (TGI) (LoVo; TGI=total growth inhibition (cytostatic effect)): 0.333 µM; CC50 (A-549; A549, A-549, LC=cell killing (cytotoxic effect), read-out: LC50 A-549): 0.883 µM; IC (TGI) (A-549; A549, A-549, TGI=total growth inhibition (cytostatic effect)): 0.154 µM; CC50 (K-562; K562, K-562, LC=cell killing (cytotoxic effect), read-out: LC50 K-562): 4.03 µM; IC (TGI) (K-562; K562, K-562, TGI=total growth inhibition (cytostatic effect)): 0.918 µM; CC50 (IGROV; Homo sapiens, IGROV; cell killing (cytotoxic effect); read-out: LC50 IGROV): 4.76 µM; IC (TGI) (IGROV; Homo sapiens, IGROV; total growth inhibition (cytostatic effect); read-out: TGI IGROV): 0.5 µM; CC50 (DU-145; DU-145, DU-145, read-out: LC50 DU-145): 0.367 µM; CC50 (LoVo-Dox; LOVO-DOX, LC=cell killing (cytotoxic effect), read-out: LC50 LOVO-DOX): 4.33 µM; IC (TGI) (LoVo-Dox; LOVO-DOX, TGI=total growth inhibition (cytostatic effect)): 0.558 µM; CC50 (HT-29; HT-29, HT-29, LC=cell killing (cytotoxic effect), read-out: LC50 HT-29): 8.74 µM; IC (TGI) (HT-29; HT-29, HT-29, TGI=total growth inhibition (cytostatic effect)): 3.42 µM; LC50 (concentration causing 50% net cell killing) (SKOV-3; SK-OV-3, SKOV-3, cell killing (cytotoxic effect), read-out: LC50 SKOV-3): 5.03 µM; CC50 (SK-MEL-28; SK-MEL-28, MEL-28, read-out: LC50 MEL-28): 2.48 µM; CC50 (LNCaP; LN-caP, read-out: LC50 LN-caP): 0.423 µM
